In PubChem BioAssay (NCI):
Several values for one entry are separate records, joined by “and”; a condition that tells them apart may be missing. Equal entries are not always repeated.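 Protocol summary: plate cells (96-well), add compound at 5 concentrations, incubate 48 h, interpolate endpoints linearly. GI50 is the concentration that inhibits growth by half. At the TGI there is no net growth.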

Key:
Assay in all cases: NCI anticancer screen, dose series, 48 h
IGROV1 ovarian = system: IGROV1 ovarian
EKVX NSCLC = system: EKVX NSCLC
NCI-H522 lung = system: NCI-H522 lung
ACHN renal = system: ACHN renal
HCT-116 colon = system: HCT-116 colon
UACC-257 melanoma = system: UACC-257 melanoma
SW-620 colon = system: SW-620 colon
HOP-62 NSCLC = system: HOP-62 NSCLC
KM20L2 colon = system: KM20L2 colon
M19-MEL melanoma = system: M19-MEL melanoma

Row | Compound | TGI (IGROV1 ovarian) | TGI (EKVX NSCLC) | TGI (NCI-H522 lung) | TGI (ACHN renal) | TGI (HCT-116 colon) | TGI (UACC-257 melanoma) | TGI (SW-620 colon) | TGI (HOP-62 NSCLC) | GI50 (IGROV1 ovarian) | GI50 (EKVX NSCLC) | GI50 (NCI-H522 lung) | GI50 (ACHN renal) | GI50 (HCT-116 colon) | GI50 (UACC-257 melanoma) | GI50 (SW-620 colon) | GI50 (HOP-62 NSCLC) | TGI (KM20L2 colon) [µM] | TGI (M19-MEL melanoma) [µM] | GI50 (KM20L2 colon) [µM] | GI50 (M19-MEL melanoma) [µM]
1 | O=C(Nc1ccc(Cl)c(Cl)c1)C(=O)C(C1OC(=O)c2ccccc21)[N+](=O)[O-] (centres undefined) | > 100 µM | > 100 µM | > 100 µM | > 100 µM | > 100 µM | > 100 µM | > 100 µM | > 100 µM |  |  |  |  |  |  |  |  |  |  |  | 
2 | O=C1CSC(=S)N1c1ccc(F)cc1F | > 100 µM | > 100 µM | 47.3 µM | > 100 µM | > 100 µM | > 100 µM | > 100 µM | > 100 µM |  |  |  |  |  |  |  |  |  |  |  | 
3 | Fc1ccc(CNc2c3ccccc3nc3ccccc23)cc1 | 6.02 µM | 11.4 µM | 4.24 µM | 5.64 µM | 11.8 µM | 7.02 µM | 6.84 µM | 16.7 µM | 2.3 µM | 2.61 µM | 1.66 µM | 1.93 µM | 2.12 µM | 2.59 µM | 1.95 µM | 3.58 µM |  |  |  | 
4 | O=C1OC(c2ccccc2)C2CC3CC4(CCC3CN12)OCCO4 (centres undefined) | > 100 µM | > 100 µM | 1.57 µM |  | > 100 µM | > 100 µM | > 100 µM | > 100 µM |  |  |  |  |  |  |  |  | > 100 |  |  | 
5 | O=C(CC1(O)C(=O)Nc2c(Cl)cccc21)c1ccccc1 (centres undefined) |  | > 100 µM | > 100 µM | > 100 µM |  | > 100 µM | > 100 µM | > 100 µM |  |  |  |  |  |  |  |  | > 100 |  |  | 
6 | O=C1C(c2ccc([N+](=O)[O-])cc2)=[N+]([O-])c2ccccc21 | > 100 µM | > 100 µM | 20.3 µM | > 100 µM | 64.3 µM |  | > 100 µM | 82.3 µM |  |  |  |  |  |  |  |  |  | 41.5 |  | 
7 | C=CCCC(O)c1ccc(C(O)CCCCCCCCCCCC)o1 (centres undefined) | 43.2 µM | 50.4 µM | 44.4 µM | 29.2 µM | 28.6 µM | 40.1 µM | 37.9 µM | 34.8 µM | 18.7 µM | 23.9 µM | 17.3 µM | 15.8 µM | 14.8 µM | 19.2 µM | 17.9 µM | 19.1 µM |  |  |  | 
8 | Cc1cc2c(cc1C)N1Cc3c(ccc(C)c3C)N(C2)C1 (tested in a mixture with another compound) | > 100 µM | > 100 µM | > 100 µM |  | > 100 µM |  | > 100 µM | > 100 µM |  |  |  |  |  |  |  |  | > 100 | > 100 |  | 
9 | Cc1ccc(Cl)cc1Nc1nc(C(F)(F)F)ccc1C(=O)N/N=C/c1c(Cl)cccc1Cl | > 68.9 µM | 3.71 µM | 5.98 µM | 6.14 µM | 1.58 µM | 7.69 µM | 12.2 µM | 2.29 µM | 0.994 µM | 0.507 µM | 1.77 µM | 1.08 µM | 0.355 µM | 2.49 µM | 0.475 µM | 0.745 µM |  |  |  | 
10 | COc1ccc(C(=O)C(c2ccc(OC)cc2)C2C(=O)Oc3ccccc32)cc1 (centres undefined) | > 100 µM | > 100 µM | > 100 µM | > 100 µM | > 100 µM | > 100 µM | > 100 µM |  | > 100 µM | > 100 µM | > 100 µM | > 100 µM | > 100 µM | > 100 µM | > 100 µM |  | > 100 | > 100 | > 100 | > 100
11 | CC1(C)CC(=O)C(C(c2cccc(O)c2O)C2C(=O)CC(C)(C)CC2=O)C(=O)C1 | > 100 µM | > 100 µM | > 100 µM | > 100 µM | > 100 µM | > 100 µM | > 100 µM | > 100 µM |  |  |  |  |  |  |  |  |  |  |  | 
12 | O=S(=O)(O)c1ccc(Cl)cc1.[Cd] | 43.2 µM | > 100 µM | 6.79 µM | > 100 µM | > 100 µM | 78.8 µM | > 100 µM | > 100 µM | 20.9 µM | 80.6 µM | 1.99 µM | > 100 µM | > 100 µM | 29.6 µM | 52.3 µM | > 100 µM |  |  |  | 
13 | N#Cc1ccc(/C=N\N2C(=O)c3ccccc3C2=O)cc1 | > 100 µM | > 100 µM |  | > 100 µM | > 100 µM | > 100 µM | > 100 µM | > 100 µM |  |  |  |  |  |  |  |  | > 100 | > 100 |  | 
14 | O=C(O)c1cc(N/C=C2\C(=O)c3ccccc3OC2O)ccc1O (centres undefined) | 61.8 µg/mL | 78.5 µg/mL | 72.7 µg/mL | 82.7 µg/mL | 51 µg/mL | 93.7 µg/mL | 54.2 µg/mL | 75.3 µg/mL | 20.6 µg/mL | 24.3 µg/mL | 34.3 µg/mL | 28.3 µg/mL | 19.8 µg/mL | 33.4 µg/mL | 23.4 µg/mL | 29.8 µg/mL |  |  |  | 
15 | CCCCCCCCCCCCOC1C(CNC(=O)C2OC3OC(C)(C)OC3C2NC(=O)CN2CCN(c3ccccn3)CC2)OC2OC(C)(C)OC21 (centres undefined) | 3.45 µM | 3.14 µM | 3.2 µM | 3.21 µM | 3.04 µM | 3.49 µM | 3.18 µM | 3.53 µM | 1.87 µM | 1.7 µM | 1.66 µM | 1.77 µM | 1.61 µM | 1.81 µM | 1.69 µM | 1.94 µM |  |  |  | 
16 | O=c1cc2n(c(=O)[nH]1)C1OC(C(O)C1O)[C@H]2CCO (some centres undefined) | > 100 µM | > 100 µM | > 100 µM | > 100 µM |  | > 100 µM | > 100 µM | > 100 µM |  |  |  |  |  |  |  |  | > 100 | > 100 |  | 
17 | Nc1ccccc1/C=N\Nc1ccccc1 | > 100 µM | > 100 µM | > 100 µM | > 100 µM | > 100 µM | > 100 µM | > 100 µM | > 100 µM | > 100 µM | 77.1 µM | > 100 µM | 3.01 µM | > 100 µM | 51.5 µM | 11.5 µM | > 100 µM |  |  |  | 
18 | CC1(C)CC(=O)C2=C(C1)NC(SSC1=C(C#N)C(c3ccc(Br)cc3)C3=C(CC(C)(C)CC3=O)N1)=C(C#N)C2c1ccc(Br)cc1 (centres undefined) | > 100 µM and 150 µg/mL | > 100 µM and 150 µg/mL | > 100 µM and 53.5 µg/mL | > 100 µM and 150 µg/mL | > 100 µM and 150 µg/mL | > 100 µM and 150 µg/mL | > 100 µM and 56.1 µg/mL | > 100 µM and 150 µg/mL | > 150 µg/mL | > 150 µg/mL | 30 µg/mL | > 150 µg/mL | 89.8 µg/mL | > 150 µg/mL | 29.3 µg/mL | > 150 µg/mL |  |  |  | 
